In US9815842B2, “Pyrazolo pyrimidine derivatives and their use as MALT1 inhibitors” (Novartis AG, priority 2014, dated 2017):
pIC50: −log10 of the molar value.

Tests used:
[1] = target: C-domain of MALT1 (amino acids 329-824) (Homo sapiens (Human), UniProt Q9UDY8); assay: MALT1 biochemical assay (fluorescence lifetime enzyme activity assay); settings: 60 min pre-incubation, 2.5 nM enzyme, 1 μM peptide substrate
Protocol: The readout parameter is the increase of fluorescence lifetime over time, proportional to enzyme activity.
The assay employs a short peptide substrate labeled with the single fluorophore PT14 as a fluorescence lifetime probe sensitive to the cleavage state of the substrate (PT14: 6-(9-oxo-9H-acridin-10-yl)-hexanoate, AssayMetrics, UK). […] The assay buffer consists of 200 mM Tris/HCl at pH 7.5, 0.8 M Na citrate, 100 μM EGTA, 100 μM DTT and 0.05% (w/v) CHAPS. […] Test compounds were dissolved in 100% (v/v) DMSO or a mixture containing 90% (v/v) DMSO and 10% (v/v) H2O at a stock concentration of 100 mM. Serial dilutions of test compounds were prepared using either 100% (v/v) DMSO or a mixture containing 90% (v/v) DMSO and 10% (v/v) H2O.

Human IL2 promoter = Human IL2 promoter reporter gene assay (RGA) in Jurkat cells; format: cell-based; settings: Jurkat clone K22 290_H23, anti-CD28 mAb + PMA stimulation 5.5 h
Protocol: Human IL2 Promoter Reporter Gene Assay (RGA) in Jurkat Cells
The transfected Jurkat clone K22 290_H23 was propagated in RPMI 1640 supplemented with 10% heat inactivated fetal calf serum, 50 μM 2-mercaptoethanol and 1 mg/ml Geneticin. The cell concentration should not exceed 1×10e6/ml during culturing. The cells should not exceed passage 30. Prior to the assay the cells were washed and prepared to the concentration of 2×10e6 cells/ml.
Compound dilutions were made as 2×-concentrated solutions then diluted 1/2 by addition to cells. Two hundred and fifty μl of compound dilution and 250 μl of cells were mixed together in wells of a 96-deep well plate. Cells/compounds premix were incubated 30 min at 37° C. and 5% CO2 directly in the deep well plate.
After pre-incubation of cells with compounds, cells were stimulated with anti-CD28 mAb (clone 15E8) at 3 μg/ml+PMA at 1 μg/ml. Both co-stimulants were diluted in culture medium at a 10×-concentrated solution. 10 μl of co-stimulants were pipetted into the white 96-well plates and 100 μl of cell/compound mix was immediately added in duplicates. The cells were stimulated for 5.5 h at 37° C. and 5% CO2.
After cell stimulation, 50 μl of BriteLitePlus reagent (Perkin Elmer) was added to each well and the bioluminescence was measured with a Wallac EnVision reader (Perkin Elmer).

[2] = target: cIAP2-MALT1 fusion protein (Homo sapiens, UniProt Q9UDY8); assay: cell-based
Chain of cIAP2-MALT1 fusion protein (Q9UDY8 2-824 limits assumed): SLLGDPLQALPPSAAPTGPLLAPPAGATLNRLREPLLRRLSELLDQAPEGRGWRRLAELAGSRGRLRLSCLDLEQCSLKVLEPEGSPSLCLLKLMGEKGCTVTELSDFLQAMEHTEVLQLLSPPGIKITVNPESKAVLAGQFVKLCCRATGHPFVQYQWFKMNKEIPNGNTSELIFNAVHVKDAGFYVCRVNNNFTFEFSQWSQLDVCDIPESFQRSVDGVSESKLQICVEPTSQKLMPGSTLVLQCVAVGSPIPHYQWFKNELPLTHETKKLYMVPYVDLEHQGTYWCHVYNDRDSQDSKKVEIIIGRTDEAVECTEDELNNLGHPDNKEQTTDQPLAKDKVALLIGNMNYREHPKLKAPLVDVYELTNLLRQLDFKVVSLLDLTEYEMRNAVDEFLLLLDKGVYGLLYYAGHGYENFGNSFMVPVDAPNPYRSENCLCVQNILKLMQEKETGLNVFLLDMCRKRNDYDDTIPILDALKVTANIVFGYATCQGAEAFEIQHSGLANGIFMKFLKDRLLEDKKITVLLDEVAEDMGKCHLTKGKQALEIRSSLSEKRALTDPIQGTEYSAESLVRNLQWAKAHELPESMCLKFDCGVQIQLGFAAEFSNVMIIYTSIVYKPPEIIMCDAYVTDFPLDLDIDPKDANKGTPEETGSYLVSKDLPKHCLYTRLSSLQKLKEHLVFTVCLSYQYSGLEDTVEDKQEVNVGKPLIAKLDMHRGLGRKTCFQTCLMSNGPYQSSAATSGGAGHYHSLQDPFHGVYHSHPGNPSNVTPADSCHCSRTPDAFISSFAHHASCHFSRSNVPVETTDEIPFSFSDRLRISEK
Protocol: For the measurement of compound inhibition, 0.25 μl of test compound were mixed with 12.5 μl of enzyme in wells of the 384-well plates, and incubated for 60 minutes at room temperature (22° C.). After that, 12.5 μl of substrate was added, and the enzymatic reaction was allowed to proceed for 60 minutes at room temperature (22° C.). […] The DMSO content was between 0.9 and 1% (v/v). […] The IC50 value was calculated from the plot of percentage inhibition versus inhibitor concentration using non-linear regression analysis software (Origin, OriginLab Corporation, USA). The data were fitted using a 4 Parameter Logistic Model, characterized by the following equation: y=A2+(A1−A2)/(1+(x/IC50)^p) where y is the %-inhibition at the inhibitor concentration, x. A1 is the lowest inhibition value, and A2 the maximum inhibition value.

Chain of C-domain of MALT1 (amino acids 329-824) (Q9UDY8 329-824): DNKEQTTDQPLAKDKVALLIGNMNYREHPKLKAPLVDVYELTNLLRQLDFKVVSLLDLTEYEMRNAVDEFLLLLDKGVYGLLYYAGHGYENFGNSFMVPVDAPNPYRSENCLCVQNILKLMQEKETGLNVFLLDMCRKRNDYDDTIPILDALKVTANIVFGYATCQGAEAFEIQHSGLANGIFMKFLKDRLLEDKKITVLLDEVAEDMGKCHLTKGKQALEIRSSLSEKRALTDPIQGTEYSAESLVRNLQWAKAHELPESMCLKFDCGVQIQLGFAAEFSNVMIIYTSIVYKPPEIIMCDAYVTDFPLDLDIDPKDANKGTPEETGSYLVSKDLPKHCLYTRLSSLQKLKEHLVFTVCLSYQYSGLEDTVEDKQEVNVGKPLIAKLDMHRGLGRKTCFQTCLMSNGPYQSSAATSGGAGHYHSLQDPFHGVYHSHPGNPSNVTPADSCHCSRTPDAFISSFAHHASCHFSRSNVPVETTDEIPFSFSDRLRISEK

SMILES	pIC50 [1]	pIC50 (Human IL2 promoter)	pIC50 [2]
CC(C)c1c(NC(=O)Nc2cc(Cl)c(=O)n(C)c2-n2cccn2)cnc2cc(Cl)nn12 [Example 24, 1-(5-chloro-1-methyl-6-oxo-2-(1H-pyrazol-1-yl)-1,6-dihydropyridin-3-yl)-3-(2-chloro-7-isopropylpyrazolo[1,5-a]pyrimidin-6-yl)urea]	8.30	6.67	6.88
Cc1ncn(-c2ccc(NC(=O)Nc3cnc4cc(Cl)nn4c3C(C)C)cc2C#N)n1 [Example 19, 1-(2-chloro-7-isopropylpyrazolo[1,5-a]pyrimidin-6-yl)-3-(3-cyano-4-(3-methyl-1H-1,2,4-triazol-1-yl)phenyl)urea]	8.52	6.83	7.04
COC(=O)c1cc(Cl)cc(NC(=O)Nc2cnc3cc(Cl)nn3c2[C@H](C)OC)c1 [Example 13, (S)-methyl 3-chloro-5-(3-(2-chloro-7-(1-methoxyethyl)pyrazolo[1,5-a]pyrimidin-6-yl)ureido)benzoate]	8.70	7.41	7.11
CC(C)c1c(NC(=O)Nc2ccc(-n3nccn3)c(Cl)c2)cnc2cc(Cl)nn12 [Example 20, 1-(3-chloro-4-(2H-1,2,3-triazol-2-yl)phenyl)-3-(2-chloro-7-isopropylpyrazolo[1,5-a]pyrimidin-6-yl)urea]	8.52	6.61	7.00
O=C(Nc1cnc(-n2nccn2)c(Cl)c1)Nc1cnc2cc(Cl)nn2c1C1CCOC1 (stereo not shown) [Example 57, 1-(5-chloro-6-(2H-1,2,3-triazol-2-yl)pyridin-3-yl)-3-(2-chloro-7-(tetrahydrofuran-3-yl)pyrazolo[1,5-a]pyrimidin-6-yl)urea]	7.72		6.55
COc1cc(NC(=O)Nc2cnc3cc(Cl)nn3c2[C@H](C)OC)cnc1-n1nccn1 [Example 11, (S)-1-(2-chloro-7-(1-methoxyethyl)pyrazolo[1,5-a]pyrimidin-6-yl)-3-(5-methoxy-6-(2H-1,2,3-triazol-2-yl)pyridin-3-yl)urea]	7.72		6.79
CO[C@@H](c1c(NC(=O)Nc2cnc(-n3nccn3)c(C(F)(F)F)c2)cnc2cc(Cl)nn12)C(C)C [Example 4, (R)-1-(6-(2H-1,2,3-triazol-2-yl)-5-(trifluoromethyl)pyridin-3-yl)-3-(2-chloro-7-(1-methoxy-2-methylpropyl)pyrazolo[1,5-a]pyrimidin-6-yl)urea]	8.22		7.21
COc1ccccc1-c1c(NC(=O)Nc2cnc(-n3nccn3)c(Cl)c2)cnc2cc(Cl)nn12 [Example 53, 1-(5-chloro-6-(2H-1,2,3-triazol-2-yl)pyridin-3-yl)-3-(2-chloro-7-(2-methoxyphenyl)pyrazolo[1,5-a]pyrimidin-6-yl)urea]	8.40		6.77
CC(C)c1c(NC(=O)Nc2ccc(-c3ccnc(N)n3)c(Cl)c2)cnc2cc(Cl)nn12 [Example 23, 1-(4-(2-aminopyrimidin-4-yl)-3-chlorophenyl)-3-(2-chloro-7-isopropylpyrazolo[1,5-a]pyrimidin-6-yl)urea]		6.51	6.52
CC1(c2c(NC(=O)Nc3ccnc(C(F)(F)F)c3)cnc3cc(Cl)nn23)CC1 [Example 17, 1-(2-chloro-7-(1-methylcyclopropyl)pyrazolo[1,5-a]pyrimidin-6-yl)-3-(2-(trifluoromethyl)pyridin-4-yl)urea]	7.96		6.93
COCC1(c2c(NC(=O)Nc3cnc(-n4nccn4)c(Cl)c3)cnc3cc(Cl)nn23)CCC1 [Example 50, 1-(5-chloro-6-(2H-1,2,3-triazol-2-yl)pyridin-3-yl)-3-(2-chloro-7-(1-(methoxymethyl)cyclobutyl)pyrazolo[1,5-a]pyrimidin-6-yl)urea]	7.70		6.64
COC(c1ccccc1)c1c(NC(=O)Nc2cnc(-n3nccn3)c(Cl)c2)cnc2cc(Cl)nn12 (stereo not shown) [Example 49, 1-(5-chloro-6-(2H-1,2,3-triazol-2-yl)pyridin-3-yl)-3-(2-chloro-7-(methoxy(phenyl)methyl)pyrazolo[1,5-a]pyrimidin-6-yl)urea]	8.52		7.23
CO[C@@H](c1c(NC(=O)Nc2cnc(-n3nccn3)c(Cl)c2)cnc2cc(Cl)nn12)C(C)C [Example 5, (R)-1-(5-chloro-6-(2H-1,2,3-triazol-2-yl)pyridin-3-yl)-3-(2-chloro-7-(1-methoxy-2-methylpropyl)pyrazolo[1,5-a]pyrimidin-6-yl)urea]	8.30		6.95
CC1(c2c(NC(=O)Nc3ccnc(C(F)(F)F)c3)cnc3cc(Cl)nn23)CCCO1 (stereo not shown) [Example 36, 1-(2-chloro-7-(2-methyltetrahydrofuran-2-yl)pyrazolo[1,5-a]pyrimidin-6-yl)-3-(2-(trifluoromethyl)pyridin-4-yl)urea]	8.05		6.74
CCOc1ncc(NC(=O)Nc2cnc3cc(Cl)nn3c2C(C)C)cc1Cl [Example 25, 1-(5-chloro-6-ethoxypyridin-3-yl)-3-(2-chloro-7-isopropylpyrazolo[1,5-a]pyrimidin-6-yl)urea]		6.28	6.51
CC(C)(C)c1c(NC(=O)Nc2cnc(-n3nccn3)c(Cl)c2)cnc2cc(Cl)nn12 [Example 34, 1-(7-(tert-butyl)-2-chloropyrazolo[1,5-a]pyrimidin-6-yl)-3-(5-chloro-6-(2H-1,2,3-triazol-2-yl)pyridin-3-yl)urea]	8.40		6.97

Further lines, results first:

pIC50 [1]	pIC50 (Human IL2 promoter)	pIC50 [2]	SMILES
7.92	7.04	6.79	COc1ncc(NC(=O)Nc2cnc3cc(C)nn3c2C2(C)CC2)cc1Cl [Example 73, 1-(5-chloro-6-methoxypyridin-3-yl)-3-(2-methyl-7-(1-methylcyclopropyl)pyrazolo[1,5-a]pyrimidin-6-yl)urea]
7.72		7.05	CN1CCCC[C@H]1c1c(NC(=O)Nc2cnc(-n3nccn3)c(Cl)c2)cnc2cc(Cl)nn12 [Example 84, (S)-1-(5-chloro-6-(2H-1,2,3-triazol-2-yl)pyridin-3-yl)-3-(2-chloro-7-(1-methylpiperidin-2-yl)pyrazolo[1,5-a]pyrimidin-6-yl)urea]
8.30		6.72	CO[C@H](C)CO[C@@H](C)c1c(NC(=O)Nc2cnc(-n3nccn3)c(Cl)c2)cnc2cc(Cl)nn12 [Example 85, 1-(5-chloro-6-(2H-1,2,3-triazol-2-yl)pyridin-3-yl)-3-(2-chloro-7-((S)-1-((R)-2-methoxypropoxy)ethyl)pyrazolo[1,5-a]pyrimidin-6-yl)urea]
7.72		6.43	CC(C)OCc1c(NC(=O)Nc2cnc(-n3nccn3)c(Cl)c2)cnc2cc(Cl)nn12 [Example 61, 1-(5-chloro-6-(2H-1,2,3-triazol-2-yl)pyridin-3-yl)-3-(2-chloro-7-(isopropoxymethyl)pyraozlo[1,5-a]pyrimidin-6-yl)urea]
6.91		6.05	CN(C)C(=O)c1c(NC(=O)Nc2cnc(-n3nccn3)c(Cl)c2)cnc2cc(Cl)nn12 [Example 70, 2-chloro-6-(3-(5-chloro-6-(2H-1,2,3-triazol-2-yl)pyridin-3-yl)ureido)-N,N-dimethylpyrazolo[1,5-a]pyrimidine-7-carboxamide]
6.91		6.51	C[C@H](OCCN(C)C)c1c(NC(=O)Nc2cnc(-n3nccn3)c(Cl)c2)cnc2cc(Cl)nn12 [Example 82, (S)-1-(5-chloro-6-(2H-1,2,3-triazol-2-yl)pyridin-3-yl)-3-(2-chloro-7-(1-(2-(dimethylamino)ethoxy)ethyl)pyrazolo[1,5-a]pyrimidin-6-yl)urea]
7.89		6.73	COCCC(OC)c1c(NC(=O)Nc2cnc(-n3nccn3)c(Cl)c2)cnc2cc(Cl)nn12 (stereo not shown) [Example 64, 1-(5-chloro-6-(2H-1,2,3-triazol-2-yl)pyridin-3-yl)-3-(2-chloro-7-(1,3-dimethoxypropyl)pyrazolo[1,5-a]pyrimidin-6-yl)urea]
7.47		6.21	CC(C)(c1c(NC(=O)Nc2ccnc(C(F)(F)F)c2)cnc2cc(Cl)nn12)C1CCOCC1 [Example 80, 1-(2-chloro-7-(2-(tetrahydro-2H-pyran-4-yl)propan-2-yl)pyrazolo[1,5-a]pyrimidin-6-yl)-3-(2-(trifluoromethyl)pyridin-4-yl)urea]
8.22		6.62	COCC1(c2c(NC(=O)Nc3ccnc(C(F)(F)F)c3)cnc3cc(Cl)nn23)CC1 [Example 77, 1-(2-chloro-7-(1-(methoxymethyl)cyclopropyl)pyrazolo[1,5-a]pyrimidin-6-yl)-3-(2-(trifluoromethyl)pyridin-4-yl)urea]
